Assay results: ChEMBL document CHEMBL1201862, “PubChem BioAssay data set” (2004)
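Five concentrations, 48 hours, 96-well plates. GI50 is the concentration that inhibits growth by half.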 The source made the active and inactive calls. Rule as the data show it: active = GI50 up to about 1.1 µM and inactive = higher.

Assays:
Test in all cases: DTP human tumour cell line panel, 48 h
NCI-H23 = tested on: NCI-H23
UACC-62 = tested on: UACC-62
Malme-3M = tested on: Malme-3M
MDA-MB-231 = tested on: MDA-MB-231
Hs-578T = tested on: Hs-578T
A498 = tested on: A498
SN12C = tested on: SN12C
CAKI-1 = tested on: CAKI-1
RPMI-8226 = tested on: RPMI-8226
NCI-H460 = tested on: NCI-H460
SK-MEL-28 = tested on: SK-MEL-28
786-0 = tested on: 786-0
NCI-H522 = tested on: NCI-H522
HT-29 = tested on: HT-29
RXF 393 = tested on: RXF 393
IGROV-1 = tested on: IGROV-1
EKVX = tested on: EKVX
NCI-H226 = tested on: NCI-H226
SF-539 = tested on: SF-539

Measured: GI50

COCN1C(=O)[C@@H]2CCCN2C(=O)c2cc(Cl)ccc21
inactive: NCI-H23 > 100 µM | UACC-62 > 100 µM | Malme-3M > 100 µM | MDA-MB-231 > 100 µM | Hs-578T > 100 µM | A498 > 100 µM | SN12C > 100 µM | CAKI-1 > 100 µM | RPMI-8226 > 100 µM | NCI-H460 > 100 µM | SK-MEL-28 > 100 µM | 786-0 > 100 µM | NCI-H522 > 100 µM | HT-29 > 100 µM | RXF 393 > 100 µM | IGROV-1 > 100 µM | EKVX > 100 µM

CCCCN1C(=O)CC2[C@@H]3CCc4cc(OC)ccc4C3CC[C@]2(C)C1=O (stereo partly specified)
inactive: NCI-H23 > 10 µM | UACC-62 > 10 µM | Malme-3M > 10 µM | MDA-MB-231 > 10 µM | Hs-578T > 10 µM | A498 > 10 µM | SN12C > 10 µM | CAKI-1 > 10 µM | RPMI-8226 > 10 µM | NCI-H460 > 10 µM | SK-MEL-28 > 10 µM | 786-0 > 10 µM | HT-29 > 10 µM | RXF 393 > 10 µM | NCI-H226 > 10 µM | IGROV-1 > 10 µM | SF-539 > 10 µM | EKVX > 10 µM

N/C(=N\c1ccc(Cl)cc1)c1ccccc1N
inactive: NCI-H23 > 100 µM | UACC-62 > 100 µM | Malme-3M > 100 µM | MDA-MB-231 > 100 µM | Hs-578T > 100 µM | A498 > 100 µM | CAKI-1 > 100 µM | RPMI-8226 > 100 µM | NCI-H460 > 100 µM | SK-MEL-28 > 100 µM | 786-0 > 100 µM | NCI-H522 > 100 µM | HT-29 > 100 µM | RXF 393 > 100 µM | NCI-H226 > 100 µM | IGROV-1 > 100 µM | EKVX > 100 µM

O=C1Nc2ccc(S(=O)(=O)N(CCO)CCO)cc2/C1=C1/Nc2ccccc2C1=O
inactive: NCI-H23 > 100 µM | UACC-62 > 100 µM | Malme-3M > 100 µM | MDA-MB-231 40.5 µM | Hs-578T > 100 µM | A498 > 100 µM | SN12C > 100 µM | CAKI-1 > 100 µM | RPMI-8226 > 100 µM | NCI-H460 > 100 µM | SK-MEL-28 > 100 µM | 786-0 > 100 µM | NCI-H522 > 100 µM | HT-29 > 100 µM | RXF 393 1.56 µM | NCI-H226 > 100 µM | IGROV-1 2.5 µM | EKVX > 100 µM

C[C@]12CCC3c4ccc(O)cc4CC[C@H]3C1CC(=O)N(N)C2=O (stereo partly specified)
inactive: NCI-H23 > 100 µM | UACC-62 > 100 µM | Malme-3M > 100 µM | MDA-MB-231 > 100 µM | Hs-578T > 100 µM | A498 > 100 µM | SN12C > 100 µM | CAKI-1 > 100 µM | NCI-H460 > 100 µM | SK-MEL-28 > 100 µM | 786-0 > 100 µM | NCI-H522 > 100 µM | HT-29 > 100 µM | RXF 393 > 100 µM | NCI-H226 > 100 µM | IGROV-1 > 100 µM | SF-539 > 100 µM | EKVX 64.7 µM

O=[N+]([O-])c1ccc(NN/N=N/c2ccc(-c3nc4ccccc4s3)cc2)c([N+](=O)[O-])c1
inactive: NCI-H23 20.7 µM | UACC-62 14 µM | Malme-3M 28.2 µM | MDA-MB-231 22.3 µM | Hs-578T 33.5 µM | A498 4.34 µM | SN12C 22.6 µM | CAKI-1 26.5 µM | NCI-H460 22.3 µM | SK-MEL-28 33.7 µM | 786-0 20.8 µM | NCI-H522 25 µM | HT-29 18.8 µM | RXF 393 18.7 µM | NCI-H226 29.5 µM | IGROV-1 19.9 µM | SF-539 18.8 µM | EKVX 15 µM
